The nature of series [1]: Cmax in Balb/c mouse at 10 mg/kg, po. Also on record: dose 10 mg/kg, route oral. The following applies: in vivo. The class given is ADME, organism-based.
Series [2] addresses T1, Nuclear receptor ROR-beta (Homo sapiens, UniProt Q92753).
T1 sequence (Q92753 whole entry): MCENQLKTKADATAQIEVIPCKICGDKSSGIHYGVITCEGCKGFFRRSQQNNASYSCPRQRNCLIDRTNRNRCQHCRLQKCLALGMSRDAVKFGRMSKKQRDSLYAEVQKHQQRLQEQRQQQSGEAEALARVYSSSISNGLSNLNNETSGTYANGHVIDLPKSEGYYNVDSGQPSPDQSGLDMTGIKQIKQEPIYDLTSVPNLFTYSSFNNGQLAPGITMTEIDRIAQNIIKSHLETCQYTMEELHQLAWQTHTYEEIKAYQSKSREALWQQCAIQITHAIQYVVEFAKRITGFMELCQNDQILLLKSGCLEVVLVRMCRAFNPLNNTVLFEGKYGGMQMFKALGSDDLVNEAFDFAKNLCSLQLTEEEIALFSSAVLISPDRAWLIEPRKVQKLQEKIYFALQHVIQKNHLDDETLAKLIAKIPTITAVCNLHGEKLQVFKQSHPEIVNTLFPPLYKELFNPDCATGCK
As to the kind of experiment: Inverse agonist activity at Gal4-fused RORbeta (unknown origin).

Series [3] concerns the target T2, Nuclear receptor ROR-gamma (Mus musculus, UniProt P51450).
T2 sequence (P51450 whole entry): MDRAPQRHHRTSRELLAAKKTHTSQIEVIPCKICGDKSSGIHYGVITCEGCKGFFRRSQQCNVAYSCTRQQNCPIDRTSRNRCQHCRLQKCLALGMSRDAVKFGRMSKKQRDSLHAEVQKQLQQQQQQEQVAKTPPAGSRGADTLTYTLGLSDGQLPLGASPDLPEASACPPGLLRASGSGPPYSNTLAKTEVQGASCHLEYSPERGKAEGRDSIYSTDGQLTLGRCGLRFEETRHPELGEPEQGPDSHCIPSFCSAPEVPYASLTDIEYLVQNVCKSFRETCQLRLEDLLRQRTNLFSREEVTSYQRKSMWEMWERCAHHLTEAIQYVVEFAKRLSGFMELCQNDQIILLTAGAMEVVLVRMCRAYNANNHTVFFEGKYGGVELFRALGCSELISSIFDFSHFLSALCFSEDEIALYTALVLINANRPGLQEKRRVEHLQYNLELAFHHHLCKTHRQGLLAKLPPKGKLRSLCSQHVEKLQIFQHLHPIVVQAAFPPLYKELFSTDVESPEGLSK
Kind of series: Inverse agonist activity at RORgammat in mouse whole blood assessed as suppression of […] secretion. The class given is tissue-based.

Series [4] has as its target T3, Nuclear receptor subfamily 1 group I member 2 (Homo sapiens, UniProt O75469).
T3 sequence (O75469 whole entry): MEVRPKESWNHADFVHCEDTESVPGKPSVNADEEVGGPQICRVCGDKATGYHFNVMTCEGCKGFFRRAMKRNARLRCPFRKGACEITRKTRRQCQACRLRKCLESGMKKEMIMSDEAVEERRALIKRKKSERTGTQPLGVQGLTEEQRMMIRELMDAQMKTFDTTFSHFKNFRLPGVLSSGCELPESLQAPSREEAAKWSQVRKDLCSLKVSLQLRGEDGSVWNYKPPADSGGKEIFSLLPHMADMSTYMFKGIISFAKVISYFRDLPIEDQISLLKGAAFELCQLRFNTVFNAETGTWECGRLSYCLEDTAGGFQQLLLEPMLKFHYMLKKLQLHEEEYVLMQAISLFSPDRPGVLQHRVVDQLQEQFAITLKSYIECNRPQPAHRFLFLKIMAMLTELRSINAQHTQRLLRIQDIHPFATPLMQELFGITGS
Kind of series: Inverse agonist activity at PXR (unknown origin).

Series [5] concerns the target T4, Oxysterols receptor LXR-beta (Homo sapiens, UniProt P55055).
T4 sequence (P55055 whole entry): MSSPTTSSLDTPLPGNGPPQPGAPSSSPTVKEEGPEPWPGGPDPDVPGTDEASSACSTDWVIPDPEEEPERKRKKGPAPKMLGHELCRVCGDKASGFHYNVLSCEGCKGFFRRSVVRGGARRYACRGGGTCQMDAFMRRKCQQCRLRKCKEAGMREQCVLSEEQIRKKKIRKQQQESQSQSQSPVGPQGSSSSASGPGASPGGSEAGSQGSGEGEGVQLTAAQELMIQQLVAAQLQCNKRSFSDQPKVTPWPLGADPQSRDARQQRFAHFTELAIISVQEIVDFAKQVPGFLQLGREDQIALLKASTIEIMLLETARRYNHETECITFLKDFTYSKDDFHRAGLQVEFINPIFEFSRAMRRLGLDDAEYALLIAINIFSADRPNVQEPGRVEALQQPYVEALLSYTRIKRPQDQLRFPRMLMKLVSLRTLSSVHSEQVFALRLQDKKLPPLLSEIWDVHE
As to the kind of experiment: Inverse agonist activity at LXRbeta (unknown origin).

Another series has as its target T5, Cytochrome P450 1A2 (Homo sapiens, UniProt P05177).
T5 sequence (P05177 whole entry): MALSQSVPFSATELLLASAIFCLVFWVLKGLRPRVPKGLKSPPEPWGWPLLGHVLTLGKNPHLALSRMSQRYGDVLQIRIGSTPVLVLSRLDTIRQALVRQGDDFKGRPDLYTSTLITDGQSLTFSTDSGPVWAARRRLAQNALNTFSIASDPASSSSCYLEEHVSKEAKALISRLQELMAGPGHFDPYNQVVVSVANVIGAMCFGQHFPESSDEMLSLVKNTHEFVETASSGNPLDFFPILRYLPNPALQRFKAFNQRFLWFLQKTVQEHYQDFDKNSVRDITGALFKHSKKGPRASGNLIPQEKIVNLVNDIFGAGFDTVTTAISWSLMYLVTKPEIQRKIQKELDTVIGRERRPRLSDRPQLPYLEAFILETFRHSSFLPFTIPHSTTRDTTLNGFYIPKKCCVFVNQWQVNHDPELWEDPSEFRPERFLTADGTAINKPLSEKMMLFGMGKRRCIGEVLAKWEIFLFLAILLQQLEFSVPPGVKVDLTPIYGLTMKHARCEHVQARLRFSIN
As to the kind of experiment: Inhibition of recombinant CYP1A2 (unknown origin). The class given is ADME.

Series [6] in a line: Permeability across apical to basolateral side in human Caco2 cells. The class given is ADME, cell-based. As to conditions: Caco-2, read-out: permeability.
Series [7] can be described thus: Fraction unbound in rat plasma. The format is ADME, cell-free.
Series [8] in a line: AUC (0 to 24 hrs) in dog at 1 mg/kg, po. The format is ADME, organism-based, Canis lupus familiaris. Also on record: time < 24 hr, dose 1 mg/kg, route oral. As to conditions: in vivo.
Series [9] in a line: Oral bioavailability in rat at 4 mg/kg. The class given is ADME, organism-based. As to conditions: in vivo.

Each structure is given as a SMILES string.

Turning to `C[C@H]1C[C@H](C(=O)O)CC[C@H]1C(=O)N1CC[C@@]2(S(=O)(=O)c3ccc(F)cc3)c3ccc(C(F)(C(F)(F)F)C(F)(F)F)cc3CC[C@@H]12` [BMS-986251], the Cmax in series [1] worked out at 11 µM. For the same compound, the half-maximal effective concentration (EC50) in [2] is > 10 µM; in series [3] it was 0.011 µM; in series [4], > 5 µM; in [5], > 7.5 µM. Besides, the IC50 at Cytochrome P450 1A2 is > 20 µM. Also, the Papp A→B in series [6] is 24 ×10⁻⁶ cm/s. Further, the free fraction (fraction unbound) in [7] is 0.021. The AUC(0-t) at 24 h in [8] was found to be 120 µM·h. Besides, in [9], the bioavailability came to 94%.

The values are drawn from ChEMBL document CHEMBL4616702 (ACS Med Chem Lett, 2020).
